Assay results from EP4782437A1, “HETEROARYL COMPOUND, AND PREPARATION METHOD THEREFOR AND USE THEREOF IN MEDICINE” (Jiangsu Hengrui Pharmaceuticals Co., Ltd., priority 2023, dated 2025).

Key:
[1] = molecular target: T1, BTK recombinant human protein (Homo sapiens, UniProt Q06187); assay: Inhibitory activity against BTK (HTRF KinEASE-TK kit); assay type: biochemical; conditions: 2 nM BTK, 10 µM ATP, 0.5 hours preincubation at 25°C; read-out: IC50 values of inhibitory activity against BTK
T1 construct: purchased Thermo PV3363
T1 sequence (Q06187 whole entry): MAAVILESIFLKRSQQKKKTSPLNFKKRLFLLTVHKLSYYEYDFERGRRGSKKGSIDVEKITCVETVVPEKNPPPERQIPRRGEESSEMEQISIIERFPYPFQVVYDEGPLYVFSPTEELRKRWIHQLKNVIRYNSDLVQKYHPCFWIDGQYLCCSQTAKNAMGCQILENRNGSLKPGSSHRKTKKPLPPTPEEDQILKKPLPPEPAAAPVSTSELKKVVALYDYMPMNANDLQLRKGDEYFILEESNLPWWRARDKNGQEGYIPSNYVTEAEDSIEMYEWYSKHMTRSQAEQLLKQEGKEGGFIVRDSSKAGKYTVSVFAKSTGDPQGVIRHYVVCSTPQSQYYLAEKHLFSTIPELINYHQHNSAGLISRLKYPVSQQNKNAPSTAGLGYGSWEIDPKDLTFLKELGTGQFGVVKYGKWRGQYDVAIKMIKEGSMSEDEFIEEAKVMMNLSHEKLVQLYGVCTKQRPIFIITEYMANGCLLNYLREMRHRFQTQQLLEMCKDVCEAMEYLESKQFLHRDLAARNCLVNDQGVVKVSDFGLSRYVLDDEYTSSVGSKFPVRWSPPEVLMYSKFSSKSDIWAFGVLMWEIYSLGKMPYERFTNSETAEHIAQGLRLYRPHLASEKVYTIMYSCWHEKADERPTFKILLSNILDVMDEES
Experimental: Test example 1: Inhibitory activity of compounds of the present disclosure against BTK • I. Experimental materials and instruments • 1. BTK recombinant human protein (Thermo, PV3363) • 2. HTRF KinEASE-TK kit (Cisbio, 62TK0PEC) • 3. 1 M MgCl2 (Thermo, AM9530G) • 4. 1 M MnCl2 (Sigma, M1787-100ML) • 5. Adenosine 5'-triphosphate (ATP) (New England Biolabs, P0756L) • 6. DTT 2M (Sangon Biotech, B645939) • 7. Ultrapure water (Invitrogen, 10977-015) • 8. OptiPlate-384, white opaque 384-well microplate (PerkinElmer, 6007290) • 9. 96-well round-bottom plate (Corning, 3788) • 10. Biochemical incubator (Shanghai Boxun Medical & Biological Instruments Co., Ltd., BSP-100) • 11. 15-mL centrifuge tube (Corning) • 12. Benchtop high-speed centrifuge (Changsha Yingtai Instrument Co., Ltd., TD4N) • 13. Multifunctional microplate reader (PerkinElmer, EnVision) • 14. Bravo liquid handling platform (Agilent Technologies, SGC120TH34702) • II. Experimental procedure
The HTRF KinEASE-TK kit is designed to detect changes in BTK enzyme activity based on two technologies, i.e., fluorescence resonance energy transfer and time-resolved fluorescence. The kit is operated in two stages: 1) enzyme reaction stage: the enzyme reaction is initiated by adding ATP, where the enzyme phosphorylates the substrate, and the compounds are then added to competitively bind to BTK against ATP, thereby inhibiting substrate phosphorylation; and 2) detection stage: after the enzyme reaction is complete, a detection reagent is added to terminate the reaction. Different groups on the phosphorylated substrate bind to the energy donor and energy acceptor, respectively, bringing the two into close proximity. During the instrumental readout, the energy donor is excited by an external light source, which enables resonance energy transfer to the proximal energy acceptor. The acceptor, in turn, becomes excited and emits light at a specific wavelength. Thus, changes in enzyme activity can be detected by measuring the signal values, and the inhibition rate of the compounds against the target enzyme can be calculated, thereby evaluating the inhibitory effect of the compounds on BTK enzyme activity.
Preparation of enzyme reaction buffer: 5× Kinase Buffer was diluted 5-fold with ultrapure water, and then the stock solutions of MgCl2, MnCl2 and DTT were added. The final composition of the buffer was as follows: 1× Kinase Buffer, 10 mM MgCl2, 1 mM MnCl2, and 1 mM DTT.
(§1) Preparation of 5 × BTK working solution: The BTK (5.17 µM) stock solution was removed from -20°C storage. Given that the BTK concentration in the enzyme reaction system was 2 nM and the concentration of the 5× working solution was 10 nM, the BTK stock solution was diluted 517-fold with the enzyme reaction buffer according to the volume required for the experiment. The diluted solution was then added to the 384-well plate at 2 µL per well. The plate was placed in a plate spinner and centrifuged at 2000 rpm for 1 minute to bring the liquid to the bottom of the wells.
as §1, with “[…]. Given” for “Preparation of 5 × BTK working solution: The BTK (5.17 µM) stock solution was removed from -20°C storage. Given”, “the SEB” for “the BTK”, “was 50” for “was 2”, “was 250” for “was 10”, “diluted 10-fold” for “diluted 517-fold”
The test compounds dissolved in 100% DMSO at 20 mM were diluted with 100% DMSO to a concentration of 200 µM, which represents the 200× concentration of the highest compound concentration point in the reaction system. The compounds at this concentration were then subjected to 10-point 3-fold serial dilution with 100% DMSO. The positive control wells and negative control wells were set with 100% DMSO. […]

mouse RPA model = assay: Efficacy in mouse RPA model (acute urticaria induced by OVA antigen and anti-OVA IgG); assay type: in vivo, C57BL/6N mice; conditions: single dose, p.o.; for inhibition of OVA-induced skin swelling in mice: compared with the model group
Experimental: To evaluate the efficacy of compound 3 in a mouse RPA model.
The administration volume of the vehicle was 10 ml/kg, and that of compound 3 was 20 ml/kg. The vehicle consisted of 0.5% MC + 0.5% Tween 80 + 99% water.
Thirty-three female C57BL/6N mice weighing 18-20 g were purchased from Vital River Laboratories. Animal production license No.: SCXK (Zhe) 2024-0001; animal qualification certificate No.: 20240229Abzz0619000122. The mice were housed in an SPF-grade animal facility under a 12/12-hour light/dark cycle, with a constant temperature of 23°C ± 1°C and a relative humidity of 50-60%. Food and water were provided ad libitum.
After acclimatisation, the mice were grouped and administered as follows: Table 4. Animal grouping and dosing regimen for in vivo efficacy experiment
After acclimatisation, the mice were shaved on the back one day prior to the experiment for skin preparation. On the day of the experiment, the mice were administered the vehicle control or compound 3 via oral gavage at administration volumes of 10 ml/kg and 20 ml/kg, respectively. Two hours post-administration, the mice were anaesthetised with isoflurane, and the thickness of the dorsal skin was measured using a vernier calliper. Upon completion of the measurement, 30 µg of mouse anti-OVA IgG was intradermally injected into the dorsal skin of the mice, while an equal volume of PBS was injected into the control group. Simultaneously, 200 µl of 2 mg/ml OVA antigen was intravenously injected. After 3 hours, the thickness of the skin swelling at the modelling site was measured.
Data of relevant indicators for animals in each group were expressed as mean ± standard deviation (Mean ± SD) and statistically analysed and plotted using GraphPad software.

- IC50 [1]: 8.3 nM
SMILES: C=CC(=O)N(C)CCOc1c(N)ncnc1-c1cc(F)cc(NC(=O)c2cc3c(cc2F)C2(CC2)CO3)c1C [Example 3, N-(3-(6-amino-5-(2-(N-methacrylamido)ethoxy)pyrimidin-4-yl)-5-fluoro-2-methylphenyl)-5-fluoro-2H-spiro[benzofuran-3,1'-cyclopropane]-6-carboxamide]
- inhibitory effect on skin swelling across doses (mouse RPA model; 30, 100 and 150 mpk): dose-dependent inhibitory effect
- inhibition of OVA-induced skin swelling in mice (mouse RPA model; 30 mpk): no statistically significant difference
- inhibition of OVA-induced skin swelling in mice (mouse RPA model; 100 mpk): significantly inhibited
- inhibition of OVA-induced skin swelling in mice (mouse RPA model; 150 mpk): significantly inhibited
